In publication PMC11502334, “Fungal glyceraldehyde 3-phosphate dehydrogenase GpdC maintains glycolytic mechanism against reactive nitrogen stress-induced damage” (Frontiers in Microbiology, 2024):

Assays:
[1] = target: T1, rGpdA (GpdA) (Aspergillus nidulans, UniProt P20445); assay: residual GAPDH activity after preincubation; biotin-switch assay; format: biochemical; conditions: covalent (S-nitrosation of thiols); 0–1 mM, 1 h, 25°C, pH 7.5; activity measured with NAD+
T1 construct: recombinant from cDNA, vector pET-21a, expressed in E. coli BL21 (DE3), HisTrap purified

[2] = target: T2, rGpdC (GpdC) (Aspergillus nidulans, UniProt Q5BA47); assay: as above; format: biochemical; conditions: covalent (S-nitrosation of thiols); 0–1 mM, 1 h, 25°C, pH 7.5; activity measured with NADP+
T2 construct: gene ANIA_02583; recombinant from synthetic E. coli codon-optimized gene, vector pET-21a (Nde I/Hind III), expressed in E. coli BL21 (DE3), HisTrap purified
T2 sequence (Q5BA47 1-354): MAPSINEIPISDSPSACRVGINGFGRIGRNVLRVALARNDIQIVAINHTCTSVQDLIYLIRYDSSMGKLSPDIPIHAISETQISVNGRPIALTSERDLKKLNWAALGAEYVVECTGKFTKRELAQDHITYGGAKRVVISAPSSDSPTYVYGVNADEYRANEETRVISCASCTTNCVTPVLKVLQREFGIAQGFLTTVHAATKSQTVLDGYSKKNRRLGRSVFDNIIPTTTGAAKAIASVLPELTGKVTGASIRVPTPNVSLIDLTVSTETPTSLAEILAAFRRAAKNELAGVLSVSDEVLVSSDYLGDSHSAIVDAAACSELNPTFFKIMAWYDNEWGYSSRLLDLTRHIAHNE

T1 sequence (P20445 whole entry): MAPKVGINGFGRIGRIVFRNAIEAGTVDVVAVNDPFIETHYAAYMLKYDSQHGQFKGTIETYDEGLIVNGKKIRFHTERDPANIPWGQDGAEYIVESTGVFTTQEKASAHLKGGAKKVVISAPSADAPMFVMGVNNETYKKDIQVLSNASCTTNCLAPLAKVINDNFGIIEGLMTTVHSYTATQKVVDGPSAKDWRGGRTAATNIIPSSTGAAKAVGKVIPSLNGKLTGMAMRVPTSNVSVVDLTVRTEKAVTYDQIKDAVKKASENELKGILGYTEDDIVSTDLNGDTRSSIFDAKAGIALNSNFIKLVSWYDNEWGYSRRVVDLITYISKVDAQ

SMILES: N[C@@H](CCC(=O)N[C@@H](CSN=O)C(=O)NCC(=O)O)C(=O)O [GSNO]
- residual GAPDH activity after preincubation; biotin-switch assay [1]: GSNO modified the thiol residues of rGpdA and rGpdC to S-nitrosothiol and impaired enzyme activity
- residual GAPDH activity after preincubation; biotin-switch assay [2]: GSNO modified the thiol residues of rGpdA and rGpdC to S-nitrosothiol and impaired enzyme activity
